Experiment: method code G-GLC, from Herzke, D.; Rotard, W. (1999). Physical-chemical properties of polyfluorinated dibenzodioxins and dibenzofurans. Organohalogen Compounds, 41, 171-174.
Work on Fc1c(F)c(F)c2c(c1F)Oc1c(F)c(F)c(F)c(F)c1O2 yielded a logP of 3.
Clc1c(Cl)c(Cl)c2c(c1Cl)Oc1c(Cl)c(Cl)c(Cl)c(Cl)c1O2 showed a logP of 8.2.
Fc1cc2c(cc1F)Oc1cc(F)c(F)cc1O2 showed a logP of 3.5.
In the case of Fc1cc2c(c(F)c1F)Oc1c(F)cc(F)c(F)c1O2, the logP is reported as 3.1.
Molecule Fc1cc2c(cc1F)Oc1c(F)c(F)c(F)c(F)c1O2 has a logP of 3.8.
With Fc1ccc2c(c1)Oc1c(F)c(F)c(F)c(F)c1O2 the logP was 3.6.
For Fc1cc2c(oc3ccccc32)c(F)c1F, the logP was 3.4.
Work on Fc1cc2oc3c(F)c(F)c(F)c(F)c3c2cc1F yielded a logP of 4.
Molecule Clc1ccc2oc3ccccc3c2c1Cl has a logP of 5.6.
For Clc1ccc2c(c1)Oc1ccc(Cl)cc1O2, the logP was 5.7.
Molecule Fc1ccc2c(c1)Oc1ccc(F)cc1O2 has a logP of 3.3.
Fc1ccc2oc3c(F)c(F)c(F)c(F)c3c2c1F showed a logP of 4.4.
Molecule Fc1cc(F)c2c(c1F)Oc1c(F)c(F)cc(F)c1O2 has a logP of 3.1.
Molecule Clc1cc2c(oc3ccccc32)c(Cl)c1Cl has a logP of 6.4.

— the SangsterLogP compilation
